For orientation: Ki means a dissociation constant, usually derived from enzyme kinetics or from competition with a known ligand.

The values below come from patent US20200109126A1 (priority 2017, published 2020).

Each structure is given as a SMILES string. Read-outs that look alike come from different tables or passages of the source.

The target of one experiment is hMOR (Homo sapiens, UniProt P35372). Put plainly: Receptor binding with [3H]diprenorphine at hMOR.
The target in the next experiment is hKOR (Homo sapiens, UniProt P41145). Put plainly: Receptor binding with [3H]diprenorphine at hKOR.
Another experiment has as its target humanDOR (Homo sapiens, UniProt P41143). Put plainly: Receptor binding with [3H]diprenorphine at human DOR.
Experiment [1] deals with T1, μOR (Homo sapiens, UniProt P35372). Put plainly: cell-based. It is filed as cell-based. The conditions noted are these: for EC50: Gi/o EC50 nM.
Experiment [2] deals with T1, μOR. As to the kind of experiment: β-arrestin recruitment at μOR with GRK2 co-expression. It counts as cell-based.
For experiment [3], the target named is T1, μOR. As to the kind of experiment: β-arrestin recruitment at μOR without GRK2. It counts as cell-based. In general terms: Arrestin recruitment assays detect the binding of arrestin to an activated receptor.
Where [4] appears, read: PZM analogs, (n) = number of independent experiments, read-out: binding affinity Ki hMOR.
Setting [5] is: PZM analogs, (n) = number of independent experiments, read-out: binding affinity Ki hKOR.
Setting [6] is: PZM analogs, (n) = number of independent experiments, read-out: binding affinity Ki hDOR.
Setting [7] is: ± SD (two experiments) or SEM, (n) experiments, read-out: hMOR [3H]dyprenorphine Ki.
[8] abbreviates: ± SD (two experiments) or SEM, (n) experiments, read-out: hKOR [3H]dyprenorphine Ki.
[9] abbreviates: ± SD (two experiments) or SEM, (n) experiments, read-out: humanDOR [3H]dyprenorphine Ki.

hKOR, sequence (P41145 whole entry): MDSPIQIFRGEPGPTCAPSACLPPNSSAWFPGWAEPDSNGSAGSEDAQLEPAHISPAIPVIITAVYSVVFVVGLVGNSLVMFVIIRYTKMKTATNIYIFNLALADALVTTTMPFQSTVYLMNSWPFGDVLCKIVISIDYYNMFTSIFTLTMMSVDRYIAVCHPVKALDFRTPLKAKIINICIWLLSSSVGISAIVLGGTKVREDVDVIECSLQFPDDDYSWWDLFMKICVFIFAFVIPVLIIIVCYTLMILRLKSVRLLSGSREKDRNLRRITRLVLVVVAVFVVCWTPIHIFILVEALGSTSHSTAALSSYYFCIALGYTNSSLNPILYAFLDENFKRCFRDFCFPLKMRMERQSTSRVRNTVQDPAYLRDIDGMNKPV
hMOR, sequence (P35372 whole entry): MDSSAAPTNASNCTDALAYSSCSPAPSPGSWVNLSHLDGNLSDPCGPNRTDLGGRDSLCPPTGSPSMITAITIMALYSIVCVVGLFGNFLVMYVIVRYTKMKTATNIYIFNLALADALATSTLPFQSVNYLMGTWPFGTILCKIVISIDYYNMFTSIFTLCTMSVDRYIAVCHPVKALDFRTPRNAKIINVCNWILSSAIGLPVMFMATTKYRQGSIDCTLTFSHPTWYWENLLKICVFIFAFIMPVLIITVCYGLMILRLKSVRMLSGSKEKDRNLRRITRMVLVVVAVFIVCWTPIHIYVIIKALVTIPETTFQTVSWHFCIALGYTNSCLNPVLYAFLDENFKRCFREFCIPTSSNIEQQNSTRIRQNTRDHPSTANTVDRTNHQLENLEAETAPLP
T1 sequence (P35372 whole entry): as above
humanDOR, sequence (P41143 whole entry): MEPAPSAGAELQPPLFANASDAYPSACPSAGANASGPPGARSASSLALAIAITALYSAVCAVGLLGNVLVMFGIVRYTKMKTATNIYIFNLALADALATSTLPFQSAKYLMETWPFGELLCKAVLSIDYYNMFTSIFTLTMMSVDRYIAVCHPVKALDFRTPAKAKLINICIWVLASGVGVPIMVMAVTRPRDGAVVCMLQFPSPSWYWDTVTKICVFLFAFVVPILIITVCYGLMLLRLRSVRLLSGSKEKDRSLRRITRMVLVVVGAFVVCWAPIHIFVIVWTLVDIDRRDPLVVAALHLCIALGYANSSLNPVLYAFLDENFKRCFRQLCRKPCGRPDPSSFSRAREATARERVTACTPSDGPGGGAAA

As to `CC(C)N(C[C@H](Cc1ccc(O)cc1)N(C)C)C(=O)N[C@@H](C)c1cccc2ccccc12`, the results for the inhibition constant (Ki) on hMOR (setting [4]), at hKOR (setting [5]) and at humanDOR (setting [6]) were 400 nM, 920 nM and 570 nM, respectively.
`CN(C)[C@@H](CNC(=O)NC(C)(C)Cc1ccsc1)Cc1ccc(O)cc1`: the results for the Ki on hMOR (setting [4]), on hKOR (setting [5]) and on humanDOR (setting [6]) were 310 nM, 1300 nM and 2900 nM, respectively.
Regarding `C[C@H](NC(=O)NC[C@H](Cc1ccc(O)cc1)N(C)C)c1ccccc1` (single isomer, unassigned), the Ki at hMOR (setting [4]) was 38 nM; at hKOR (setting [5]) it was 35 nM; on humanDOR (setting [6]), 590 nM.
In the case of `C[C@H](Cc1ccsc1)NC(=O)NC[C@H](Cc1ccc(O)cc1)N(C)C` [(S,R)-21, 1-[(S)-2-(Dimethylamino)-3-(4-hydroxyphenyl)propyl]-3-((R)-1-(thiophen-3-yl)propan-2-yl)urea], at μOR [1], the “Gi/o activation, μOR agonist activity (in words)” value is reported as “more potent partial agonist of the μOR as compared to (S,S)-21”.
As to `C[C@@H](Cc1ccsc1)NC(=O)NC[C@H](Cc1ccccc1)N(C)C` [(S,S)-12, 1-[(S)-2-(Dimethylamino)-3-phenylpropyl]-3-[(S)-1-(thiophen-3-yl)propan-2-yl]urea], on μOR [1], the “Gi/o activation, μOR agonist activity (in words)” value was “most potent and efficacious Gi/o signaling agonist among the four isomers”.
Take `C[C@@H](NC(=O)[C@@H](N)Cc1ccc(O)cc1)C(=O)NCC(=O)N(C)[C@@H](Cc1ccccc1)C(=O)NCCO` [DAMGO, reference compound]: the “Arrestin + GRK2 Emax % DAMGO” value on μOR [2] came to 100 % DAMGO. Besides, the “Arrestin Emax % DAMGO” value at μOR [3] amounted to 100 % DAMGO.
`C[C@@H](Cc1csc2ccccc12)NC(=O)NC[C@H](Cc1ccc(O)cc1)N(C)C` [DD63L-B]: on μOR [2], the “Arrestin + GRK2 Emax % DAMGO” value was found to be 92 % DAMGO. The values for the EC50 at μOR [2] (read-out: Arrestin + GRK2 EC50), at μOR [1] and at μOR [3] (read-out: Arrestin EC50) were 82.1 nM, 5.7 nM and 397 nM, respectively. Also, the “Gi/o Emax % DAMGO” value at μOR [1] is 88 % DAMGO. Moreover, the “Arrestin Emax % DAMGO” value at μOR [3] is 38 % DAMGO.
With `CN(C)[C@H](CNC(=S)NCCc1ccsc1)Cc1ccc(O)cc1` [DD81, (S)-1-(2-(dimethylamino)-3-(4-hydroxyphenyl)propyl)-3-(2-(thiophen-3-yl)ethyl)thiourea], at μOR [2], the “Arrestin + GRK2 Emax % DAMGO” value is on record as 27 % DAMGO. Also, the results for the EC50 at μOR [2] (read-out: Arrestin + GRK2 EC50), on μOR [1] and on μOR [3] (read-out: Arrestin EC50) were 67.1 nM, 15.1 nM and 24.9 nM, respectively. Moreover, at μOR [1], the “Gi/o Emax % DAMGO” value is given as 22 % DAMGO. At μOR [3], the “Arrestin Emax % DAMGO” value is 3 % DAMGO.
As for `CC[C@@H](Cc1ccsc1)NC(=O)NC[C@H](Cc1ccc(O)cc1)N(C)C` [DD88B, 1-((S)-2-(dimethylamino)-3-(4-hydroxyphenyl)propyl)-3-((S)-1-(thiophen-3-yl)butan-2-yl)urea], the “Arrestin + GRK2 Emax % DAMGO” value on μOR [2] is given as 45 % DAMGO. Also, the “Arrestin Emax % DAMGO” value on μOR [3] is listed as 5 % DAMGO.
Consider `CN(C)[C@H](CNC(=O)NCCc1ccccc1)Cc1ccc(O)cc1` [DD90], for which the “Arrestin + GRK2 Emax % DAMGO” value at μOR [2] is 31 % DAMGO. Further, the EC50 at μOR [2] (read-out: Arrestin + GRK2 EC50) turned out to be 144 nM; on μOR [1], 4.25 nM; at μOR [3] (read-out: Arrestin EC50) it was 53.5 nM. For the same compound, the “Gi/o Emax % DAMGO” value at μOR [1] was found to be 76 % DAMGO. The “Arrestin Emax % DAMGO” value at μOR [3] was found to be 5 % DAMGO.
On to `CN(CCc1ccccc1)C(=O)NC[C@H](Cc1ccc(O)cc1)N(C)C` [DD102], for which, on μOR [2], the “Arrestin + GRK2 Emax % DAMGO” value is 61 % DAMGO. Also, the EC50 on μOR [2] (read-out: Arrestin + GRK2 EC50) was 1500 nM; at μOR [1], 37.9 nM; on μOR [3] (read-out: Arrestin EC50), 1980 nM; on μOR [3] (read-out: Arrestin pEC50 (converted)), 1980 nM. For the same compound, the “Gi/o Emax % DAMGO” value on μOR [1] was determined as 76 % DAMGO. For the same compound, the “Arrestin Emax % DAMGO” value at μOR [3] was 30 % DAMGO.
For the compound `CN(C[C@H](Cc1ccc(O)cc1)N(C)C)C(=O)NCCc1ccccc1` [DD108], at μOR [2], the “Arrestin + GRK2 Emax % DAMGO” value is reported as 118 % DAMGO. In addition, the EC50 on μOR [2] (read-out: Arrestin + GRK2 EC50) is 1490 nM; at μOR [2] (read-out: Arrestin + GRK2 pEC50 (converted)), 1490 nM; at μOR [1], 35.1 nM; at μOR [3] (read-out: Arrestin EC50), 4710 nM. In addition, the “Gi/o Emax % DAMGO” value at μOR [1] worked out at 86 % DAMGO. On μOR [3], the “Arrestin Emax % DAMGO” value is on record as 120 % DAMGO.
Regarding `CN(C)[C@H](CNC(=O)NC(C)(C)Cc1ccsc1)Cc1cccc(O)c1` [DD 46L, (S)-1-(2-(dimethylamino)-3-(3-hydroxyphenyl)propyl)-3-(2-methyl-1-(thiophen-3-yl)propan-2-yl)urea], the Ki worked out at 25 nM on hMOR (setting [7]), 32 nM at hKOR (setting [8]) and 190 nM on humanDOR (setting [9]).
As for `C[C@H](NC(=O)NC[C@H](Cc1ccc(O)cc1)N(C)C)c1cccc2ccccc12` [DD 50LS, 1-((S)-2-(dimethylamino)-3-(4-hydroxyphenyl)propyl)-3-((S)-1-(naphthalen-1-yl)ethyl)urea], the Ki on hMOR (setting [7]) came to 84 nM; on hKOR (setting [8]), 71 nM; on humanDOR (setting [9]), 570 nM.
On to `Cc1ccc([C@H](C)NC(=O)NC[C@H](Cc2ccc(O)cc2)N(C)C)cc1` [DD 51LS, 1-((S)-2-(dimethylamino)-3-(4-hydroxyphenyl)propyl)-3-((S)-1-(p-tolyl)ethyl)urea], for which the inhibitory constant (Ki) worked out at 150 nM on hMOR, 180 nM on hKOR and 700 nM at humanDOR.
As to `C[C@H](Cc1ccccc1)NC(=O)NC[C@H](Cc1ccc(O)cc1)N(C)C` [DD 61L-A, 1-((S)-2-(dimethylamino)-3-(4-hydroxyphenyl)propyl)-3-((R)-1-phenylpropan-2-yl)urea], the inhibition constant Ki on hMOR (setting [7]) was 81 nM; at hKOR (setting [8]), 67 nM; at humanDOR (setting [9]), 91 nM.
Consider `CN(C)[C@H](CNC(=O)NCCc1ccsc1)Cc1ccc(O)cc1` [drawing 500], for which the results for the Ki at hMOR (setting [4]), on hKOR (setting [5]) and at humanDOR (setting [6]) were 43 nM, 150 nM and 330 nM, respectively.
In the case of `CN(C)[C@H](CNC(=S)NCCc1ccsc1)Cc1ccc(O)cc1` [drawing 501], the Ki at hMOR (setting [4]) was 29 nM; at hKOR (setting [5]) it was 86 nM; on humanDOR (setting [6]) it was 70 nM.
In the case of `CN(C[C@H](Cc1ccc(O)cc1)N(C)C)C(=O)NCCc1ccccc1` [drawing 503], the Ki is 610 nM at hMOR (setting [4]), 340 nM on hKOR (setting [5]) and 1700 nM on humanDOR (setting [6]).
Consider `CN(CCc1ccccc1)C(=O)NC[C@H](Cc1ccc(O)cc1)N(C)C` [drawing 504], for which the inhibition constant (Ki) on hMOR (setting [4]) amounted to 320 nM; on hKOR (setting [5]), 160 nM; on humanDOR (setting [6]), 1200 nM.
Regarding `CN(CCc1ccccc1)C(=O)N(C)C[C@H](Cc1ccc(O)cc1)N(C)C` [drawing 505], the Ki turned out to be 490 nM on hMOR (setting [4]), 220 nM at hKOR (setting [5]) and 4200 nM on humanDOR (setting [6]).
The corresponding values for `CN(C)[C@H](CNC(=O)NCCc1ccccc1)Cc1ccc(O)cc1` [drawing 514] are 47 nM, 45 nM and 250 nM.
With `C[C@H](Cc1ccccc1)NC(=O)NC[C@H](Cc1ccc(O)cc1)N(C)C` [drawing 516], the inhibition constant (Ki) amounted to 81 nM at hMOR (setting [4]), 67 nM on hKOR (setting [5]) and 91 nM on humanDOR (setting [6]).
In the case of `C[C@@H](Cc1ccccc1)NC(=O)NC[C@H](Cc1ccc(O)cc1)N(C)C` [drawing 517], the Ki on hMOR (setting [4]) was 42 nM; on hKOR (setting [5]) it was 37 nM; on humanDOR (setting [6]), 360 nM.
In the case of `C[C@@H](Cc1csc2ccccc12)NC(=O)NC[C@H](Cc1ccc(O)cc1)N(C)C` [drawing 521], the Ki at hMOR (setting [4]) amounted to 8.3 nM; on hKOR (setting [5]), 22 nM; at humanDOR (setting [6]) it was 110 nM.
The corresponding values for `Cc1ccc([C@H](C)NC(=O)NC[C@H](Cc2ccc(O)cc2)N(C)C)cc1` [drawing 523] are 150 nM, 180 nM and 700 nM.
Turning to `C[C@H](NC(=O)NC[C@H](Cc1ccc(O)cc1)N(C)C)c1cccc2ccccc12` [drawing 524], the figures for the inhibition constant (Ki) on hMOR (setting [4]), at hKOR (setting [5]) and on humanDOR (setting [6]) were 85 nM, 74 nM and 540 nM, respectively.
Regarding `CN(C)[C@H](CNC(=O)NC1Cc2ccccc2C1)Cc1ccc(O)cc1` [drawing 526], the values for the inhibition constant Ki on hMOR (setting [4]), on hKOR (setting [5]) and on humanDOR (setting [6]) were 7.7 nM, 51 nM and 56 nM, respectively.
The corresponding values for `CN(C)[C@H](CNC(=O)NC(C)(C)Cc1ccsc1)Cc1ccc(O)cc1` [drawing 528] are 38 nM, 46 nM and 650 nM.
The corresponding values for `CN(C)[C@H](CNC(=O)NC(C)(C)Cc1ccccc1)Cc1ccc(O)cc1` [drawing 530] are 46 nM, 91 nM and 920 nM.
In the case of `C[C@@H](Cc1ccsc1)NC(=O)NC[C@H](Cc1cccc(O)c1)N(C)C` [drawing 531], the figures for the Ki at hMOR (setting [4]), on hKOR (setting [5]) and at humanDOR (setting [6]) were 34 nM, 46 nM and 350 nM, respectively.
Regarding `CN(C)[C@H](CNC(=O)NC(C)(C)Cc1ccsc1)Cc1cccc(O)c1` [drawing 532], the inhibitory constant (Ki) at hMOR (setting [4]) is 25 nM; on hKOR (setting [5]), 32 nM; on humanDOR (setting [6]), 190 nM.
Turning to `C[C@@H](Cc1ccsc1)NC(=O)NC[C@H](Cc1ccc(O)c(CO)c1)N(C)C` [drawing 535], the Ki was found to be 66 nM at hMOR (setting [4]), 86 nM at hKOR (setting [5]) and 1500 nM at humanDOR (setting [6]).
Take `Cc1cc(O)cc(C)c1C[C@@H](CNC(=O)N[C@H](C)Cc1ccsc1)N(C)C` [drawing 537]: the Ki at hMOR (setting [4]) stood at 4.1 nM; on hKOR (setting [5]) it was 12 nM; on humanDOR (setting [6]), 17 nM.
On to `Cc1cc(O)cc(C)c1C[C@@H](CNC(=O)N[C@@H](C)Cc1ccsc1)N(C)C` [drawing 538], for which the Ki came out at 12 nM at hMOR (setting [4]), 6.5 nM on hKOR (setting [5]) and 85 nM at humanDOR (setting [6]).
